pIC50: −log10 of the molar value. Read-outs that look alike come from different tables or passages of the source. Square brackets hold non-standard residues; d marks the D form. Peptide text beside a SMILES is read from it. * marks the point of attachment. Fmoc = O=C(OCC1c2ccccc2-c2ccccc21)*; NHPhenethyl = c1ccc(CCN*)cc1; Cbz = O=C(OCc1ccccc1)*; NHBn = c1ccc(CN*)cc1; Bz = O=C(c1ccccc1)*; NHPh = c1ccc(N*)cc1
How the values were obtained:
[1] = tested on: KMS11 multiple myeloma cells; assay: [3H]thymidine incorporation assay in KMS11; type: cell-based, human
Protocol: Cultures of multiple myeloma cells and treatments with Z-DTPs were carried out as described in Example 8 (see below). The effects of Z-DTPs on the survival/proliferation of multiple myeloma cells were evaluated by the use of [^3H]thymidine) incorporation assays, performed as also described in Example 8. The amount of cell proliferation measured with each of the Z-DTPs' concentrations used and with the untreated cultures (i.e. cultures incubated with medium alone), was expressed as counts per minute (c.p.m.)—which directly correlate with the extent of cell proliferation. All experiments were performed in triplicate.
In these latter assays, the effects of Z-DTPs, Ac-DTPs and Z-LTPs on the survival/proliferation of tumour cell lines was investigated by measuring DNA synthesis using standard tritiated thymidine ([^3H]thymidine; [^3H]-TdR) uptake assays. In the analyses shown, cells were incubated for 24, 72, 120 or 144 hrs at 37° C. in the presence or absence of control or bioactive tetrapeptides, as indicated, then subjected to an additional incubation for 18 hrs with [^3H]-TdR (0.037 MBq/well, equivalent to […]). Cells were subsequently harvested onto glass fibre filter mats using a 96-well plate automated cell harvester, after which scintillation fluid was added, and [^3H]thymidine incorporation measured by liquid scintillation spectroscopy on a beta counter. The results are expressed as the percentages of the counts per minute (c.p.m.) (directly correlating with the extent of cell proliferation) measured with tetrapeptide-treated cultures relative to the c.p.m. measured with the corresponding cultures incubated with medium alone (untreated cells). All experiments were performed in triplicate.

[2] = biological target: T1, Gadd45β/MKK7 interaction (Homo sapiens, UniProt O14733); assay: ELISA competition assay of biotin-hGadd45β binding to coated GST-MKK7; conditions: Table III, modified peptides
T1 construct: The GST-fused full-length kinase was coated for 16 h at 4° C., at a concentration of 42 nM; made in house
T1 sequence (O14733 1-419): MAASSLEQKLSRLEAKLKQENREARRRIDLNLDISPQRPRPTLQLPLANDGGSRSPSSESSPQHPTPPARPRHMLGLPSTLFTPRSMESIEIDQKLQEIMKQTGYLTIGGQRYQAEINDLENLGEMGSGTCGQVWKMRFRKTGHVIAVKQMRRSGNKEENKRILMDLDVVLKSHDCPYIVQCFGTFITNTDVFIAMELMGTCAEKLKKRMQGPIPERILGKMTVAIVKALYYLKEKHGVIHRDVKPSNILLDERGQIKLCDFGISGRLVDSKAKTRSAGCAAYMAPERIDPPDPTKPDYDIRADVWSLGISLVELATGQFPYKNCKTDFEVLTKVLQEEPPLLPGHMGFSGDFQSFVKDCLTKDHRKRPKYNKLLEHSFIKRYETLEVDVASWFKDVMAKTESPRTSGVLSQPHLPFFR
Protocol: To evaluate the inhibitory properties of peptides, ELISA-based assays were performed. In these assays, a fusion protein of glutathione S-transferase (GST) and mitogen-activated protein kinase kinase 7 (MKK7) was coated onto wells of a 96-well plate, while biotinylated-hGadd45β was used in solution. hGadd45β was biotinylated using an EZ Link NHS-LC-biotin kit (Pierce, Rockford, Ill.), according to Tornatore et al. (Tornatore L., et al. (2008). J Mol Biol; 378:97-111).
Firstly, the association between Gadd45β and MKK7 was investigated by ELISA assays as also reported in Tornatore et al. (Tornatore L., et al. (2008). J Mol Biol; 378:97-111). The GST-fused full-length kinase was coated for 16 h at 4° C., at a concentration of 42 nM in buffer A (25 mM Tris pH 7.5, 150 mM NaCl, 1 mM DTT and 1 mM EDTA) into wells of a 96-well microliter plate. Some wells were filled with buffer alone and were used as blanks. After incubation for 16 h at 4° C., the solutions were removed and the wells were filled with 350 μL of a 1% (w/v) solution of NFDM (Non Fat Dry Milk) in PBS (phosphate buffered saline). The plate was incubated for 1 h at 37° C. in the dark. After washing with buffer T-PBS (PBS with 0.004% (v/v) Tween detergent), the wells were filled with 100 μL of biotinylated-hGadd45β at concentrations ranging from 8.4 nM to 168 nM. Each data point was performed in triplicate. Following incubation for 1 hr in the dark at 37° C. the solutions were removed and the wells were again washed with T-PBS. Then 100 μL of a 1:10,000 dilution of horseradish peroxidase-conjugated streptavidin dissolved in buffer was added to each well and the plate incubated for 1 hr at 37° C. in the dark. After removal of the enzyme solution and washing, 100 μL of the chromogenic substrate o-phenylendiamine (0.4 mg/mL in 50 mM sodium phosphate-citrate buffer, containing 0.4 mg/mL of urea in hydrogen peroxide) was added and the colour was allowed to develop in the dark for 5 min. The reaction was stopped by adding 50 μL of 2.5 M H2SO4. The absorbance at 490 nm was measured in all wells and the values were averaged after subtracting the corresponding blanks. Bound protein was then detected as described above. The molar concentration of biotinylated-hGadd45β at which the half-maximal ELISA signal is detected corresponds to the dissociation constant (KD) (Friguet B, Chaffotte A F, Djavadi-Ohaniance L, Goldberg M E. J Immunol Methods. 1985 Mar. 18; 77 (2):305-19). Binding competition assays were performed by coating GST-MKK7 at 42 nM as described, a concentration of biotinylated-hGadd45β of 21 nM (pre-saturation conditions 1:0.5 mol/mol ratio) and, in a first test, using competitors at 21 nM. The binding of biotinylated hGadd45β to GST-MKK7 was analyzed in the presence of increasing amounts of competitor peptide (concentrations ranging from 0.01 nM to 100 nM), and the values obtained with the competitor were expressed as the percentage of the binding detected in the absence of competitor. […] According to the convention adopted in the table “L-Xaa” and “D-Xaa” refer to the L and D forms of amino acid Xaa.
A simplified combinatorial peptide library (Marasco et al. 2008, Curr. Protein Pept. Sci. 9:447-67) was screened for antagonists of the Gadd45β/MKK7 interaction. This library contained a total of 12^4=20,736 different tetrapeptides formed by combinations of the following amino acid residues Gln (Q), Ser (S), Arg (R), Ala (A), Tyr (Y), Pro (P), Met (M), Cys (C), Phe (F), Leu (L), His (H), Asp (D), and was iteratively deconvoluted in four steps by ELISA competition assays using at each step coated MKK7 (42 nM), soluble-biotin-hGadd45β (21 nM) and each of the 12 sub-libraries (42 nM).

[3] = Day 1, read-out: IC50 [H^3] thymidine incorporation assay in KMS11
[4] = Day 3, read-out: IC50 [H^3] thymidine incorporation assay in KMS11
[5] = Day 6, read-out: IC50 [H^3] thymidine incorporation assay in KMS11

N=C(N)NCCC[C@@H](NC(=O)[C@@H](CCC(=O)O)NC(=O)c1ccc(O)cc1)C(=O)Nc1ccccc1 [Compound 13, X2-Glu-Arg-Y1]
pIC50 [1]: < 5.00

NC(=O)CC[C@@H](NC(=O)[C@@H](Cc1ccc(O)cc1)NC(=O)OCc1ccccc1)C(=O)N[C@H](Cc1ccccc1)C(N)=O [Z-Tyr-Gln-Phe-NH2] (Cbz-[dY]-[dQ]-[dF]-NH2)
pIC50 [1, 3]: < 5.00 | pIC50 [1, 4]: < 5.00 | pIC50 [1, 5]: < 5.00

CSCC[C@@H](NC(=O)[C@@H](Cc1ccc(O)cc1)NC(=O)OCc1ccccc1)C(=O)N[C@H](CCCNC(=N)N)C(=O)N[C@H](Cc1ccccc1)C(N)=O [Z-Tyr-Met-Arg-Phe-NH2] (Cbz-[dY][dM][dR][dF]-NH2)
pIC50 [1, 3]: < 5.00 | pIC50 [1, 4]: < 5.00 | pIC50 [1, 5]: < 5.00

NC(=O)C[C@@H](NC(=O)[C@@H](Cc1ccc(O)cc1)NC(=O)OCc1ccccc1)C(=O)N[C@H](Cc1ccccc1)C(N)=O [Z-Tyr-Asn-Phe-NH2] (Cbz-[dY]-[dN]-[dF]-NH2)
pIC50 [1, 3]: < 5.00 | pIC50 [1, 4]: < 5.00 | pIC50 [1, 5]: < 5.00

N=C(N)NCCC[C@@H](NC(=O)[C@@H](CCC(=O)O)NC(=O)c1ccccc1)C(=O)Nc1ccccc1 [Compound 10, X1-Glu-Arg-Y1] (Bz-[dE]-[dR]-NHPh)
pIC50 [1]: < 5.00

N=C(N)NCCC[C@@H](NC(=O)[C@@H](CCC(=O)O)NC(=O)c1ccccc1)C(=O)NCCc1ccccc1 [Compound 12, X1-Glu-Arg-Y3] (Bz-[dE]-[dR]-NHPhenethyl)
pIC50 [1]: < 5.00

N=C(N)NCCC[C@@H](NC(=O)[C@@H](CC(N)=O)NC(=O)[C@@H](Cc1ccc(O)cc1)NC(=O)OCc1ccccc1)C(=O)N[C@H](Cc1ccccc1)C(N)=O [Z-Tyr-Asn-Arg-Phe-NH2] (Cbz-[dY][dN][dR][dF]-NH2)
pIC50 [1, 3]: < 5.00 | pIC50 [1, 4]: < 5.00 | pIC50 [1, 5]: < 5.00

N=C(N)NCCC[C@@H](NC(=O)[C@@H](CCC(=O)O)NC(=O)c1ccccc1)C(=O)NCc1ccccc1 [Compound 11, X1-Glu-Arg-Y2] (Bz-[dE]-[dR]-NHBn)
pIC50 [1]: < 5.00

N=C(N)NCCC[C@@H](NC(=O)[C@@H](CCC(N)=O)NC(=O)[C@@H](Cc1ccc(O)cc1)NC(=O)OCc1ccccc1)C(=O)N[C@H](Cc1ccccc1)C(N)=O [Z-Tyr-Gln-Arg-Phe-NH2] (Cbz-[dY][dQ][dR][dF]-NH2)
pIC50 [1, 3]: < 5.00 | pIC50 [1, 4]: < 5.00 | pIC50 [1, 5]: < 5.00

CC(C)C[C@@H](NC(=O)[C@@H](Cc1ccc(O)cc1)NC(=O)OCc1ccccc1)C(=O)N[C@H](Cc1ccccc1)C(N)=O [Z-Tyr-Leu-Phe-NH2] (Cbz-[dY]-[dL]-[dF]-NH2)
pIC50 [1, 3]: < 5.00 | pIC50 [1, 4]: < 5.00 | pIC50 [1, 5]: < 5.00

CSCC[C@@H](NC(=O)[C@@H](Cc1ccc(O)cc1)NC(=O)OCc1ccccc1)C(=O)N[C@H](Cc1ccccc1)C(N)=O [Z-Tyr-Met-Phe-NH2] (Cbz-[dY]-[dM]-[dF]-NH2)
pIC50 [1, 3]: < 5.00 | pIC50 [1, 4]: < 5.00 | pIC50 [1, 5]: < 5.00

CC(C)C[C@@H](NC(=O)[C@@H](Cc1ccc(O)cc1)NC(=O)OCc1ccccc1)C(=O)N[C@H](CCCNC(=N)N)C(=O)N[C@H](Cc1ccccc1)C(N)=O [Z-Tyr-Leu-Arg-Phe-NH2] (Cbz-[dY][dL][dR][dF]-NH2)
pIC50 [1, 3]: < 5.00 | pIC50 [1, 4]: < 5.00 | pIC50 [1, 5]: < 5.00

Fmoc-YDFQ-NH2 (SMILES NC(=O)CC[C@H](NC(=O)[C@H](Cc1ccccc1)NC(=O)[C@H](CC(=O)O)NC(=O)[C@H](Cc1ccc(O)cc1)NC(=O)OCC1c2ccccc2-c2ccccc21)C(N)=O)
% Inhibition of Gadd45β-MKK7 binding [2]: 19%
